Test results as given in publication PMC2994747, “Molecular Characterization of c-Abl/c-Src Kinase Inhibitors Targeted against Murine Tumour Progenitor Cells that Express Stem Cell Markers” (PLoS ONE, 2010).
Read-outs that look alike come from different tables or passages of the source.

Legend:
HepG2 [1] = experiment: Cell cycle analysis by flow cytometry; assay type: cell-based, human; settings: IC50 concentration, 96 h
In short: (§1)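 Trypsinized cells, PBS wash, resuspend in kit buffer; spin, solution A 10 min RT; add solution B, incubate; add solution C, 4°C, dark. Kept on ice, light-protected, until flow cytometry.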

A549 [2] = experiment: Cell cycle analysis by flow cytometry; assay type: cell-based, human; settings: IC50 concentration, 96 h
In short: as §1

CaCo2 [3] = experiment: Cell cycle analysis by flow cytometry; assay type: cell-based, human; settings: IC50 concentration, 96 h
In short: as §1

[4] = tested on: human and murine cell lines; experiment: Western blot, statements over human and murine cell lines; assay type: cell-based; settings: IC50 concentration, 96 h
Method: (§2) For the Western Blot analysis, cells were rinsed and lysed as previously described. An amount of 25 µg protein was used for SDS-PAGE. Antibodies for c-Abl (sc-131), Actin (sc-1616), Cdc2-p34 (sc-8395), EPS15 (sc-1840), FAK (sc-558), c-Fos (sc-52), p38 (sc-7972), p53 (sc-6243) and STAT5 (sc-835x) were obtained from Santa Cruz (Santa Cruz Biotechnology, Heidelberg, Germany), while c-Src (2109) and phospho-Src Y416 (2101) were purchased from Cell Signaling (Cell Signaling Technology, Frankfurt a. M., Germany). The EGFR (06-847), phospho-EGFR Y992 (07-821) and phospho-EGFR Y1045 (04-284) stem from Upstate (Upstate, Schwalbach, Germany) and the hnRNP-K (A300-676A) from Bethyl Labs (Bethyl Laboratories, Montgomery, Texas, USA). Finally p73 (IMG-246) was supplied by Imgenex (Imgenex, Hamburg, Germany). Depending on the primary antibody the secondary antibodies were either horseradish peroxidase-conjugated anti-mouse (AP 160P), anti-rabbit (AP 132P) or anti-sheep (AP 147P) (Chemicon, Schwalbach, Germany).
(§3) Semi-quantitative analysis were carried out with Kodak 1D Image Analysis Software in reference to the vehicle treated control cells (see supplementary table S7).

GammaD12 [5] = experiment: MTS cell viability assay; assay type: cell-based, mouse; settings: Mus musculus, MTS
In short: (§4)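 Cells grown as monolayers in DMEM with 10% foetal calf serum and 4 mmol/l L-glutamine at 37°C, 5% CO2 were treated in triplicate with dual kinase inhibitors or vehicle (0.2% DMSO) for 24 h or 96 h. MTS reagent was then added for 1 h and absorbance read at 490 nm.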

BetaD5 [6] = experiment: MTS cell viability assay; assay type: cell-based, mouse; settings: Mus musculus
In short: as §4

A2C12 = experiment: MTS cell viability assay; assay type: cell-based, mouse; settings: Mus musculus
In short: as §4

GammaA3 [7] = experiment: MTS cell viability assay; assay type: cell-based, mouse; settings: Mus musculus
In short: as §4

GammaD12 [8] = experiment: Western blot, semi-quantitative protein expression; assay type: cell-based, mouse
Method: as §2, §3

GammaA3 [9] = experiment: Western blot, semi-quantitative protein expression; assay type: cell-based, mouse
Method: as §2, §3

HepG2 [10] = experiment: MTS cell viability assay; assay type: cell-based, human; settings: Homo sapiens
In short: as §4

A549 [11] = experiment: MTS cell viability assay; assay type: cell-based, human; settings: Homo sapiens
In short: as §4

CaCo2 [12] = experiment: MTS cell viability assay; assay type: cell-based, human; settings: Homo sapiens
In short: as §4

GammaD12 [13] = experiment: Cell cycle analysis by flow cytometry; assay type: cell-based, mouse; settings: IC50 concentration, 96 h
In short: as §1

BetaD5 [14] = experiment: Cell cycle analysis by flow cytometry; assay type: cell-based, mouse; settings: IC50 concentration, 96 h
In short: as §1

GammaA3 [15] = experiment: Cell cycle analysis by flow cytometry; assay type: cell-based, mouse; settings: IC50 concentration, 96 h
In short: as §1

[16] = 24 h, read-out: Calculated IC50 after single treatment for 24 h
[17] = 96 h, read-out: Calculated IC50 after daily treatment for 96 h

## Clc1cccc(Nc2nc(SC3CCCC3)nc3c2cnn3CC(Cl)c2ccccc2)c1 (centres unmarked) [Si135]
HepG2 [1]
  Cells in G1 phase: 58%
  Cells in G2 phase: 9.5%
  Cells in S phase: 32.5%
A549 [2]
  Cells in G1 phase: 50.8%
  Cells in G2 phase: 8.6%
  Cells in S phase: 40.6%
CaCo2 [3]
  Cells in G1 phase: 42.1%
  Cells in G2 phase: 12.1%
  Cells in S phase: 45.8%
[4]
  hnRNP-K protein level: remained equal
GammaD12 [5]; [16]
  IC50: 14.7 ± 0.6 µM
GammaD12 [5]; [17]
  IC50: 3.5 ± 0.2 µM
BetaD5 [6]; [16]
  IC50: 13 ± 2.2 µM
BetaD5 [6]; [17]
  IC50: 3.6 ± 0.2 µM
A2C12; [16]
  IC50: 25.5 ± 3.8 µM
A2C12; [17]
  IC50: 4.1 ± 0.4 µM
GammaA3 [7]; [16]
  IC50: 10 ± 2.2 µM
GammaA3 [7]; [17]
  IC50: 3.8 ± 0.2 µM
GammaD12 [8]
  Actin protein expression: 110
  EGFR Y992-p protein expression: 181
  EGFR Y1045-p protein expression: 132
  EGFR protein expression: 95
  EPS15 protein expression: 149
  FAK protein expression: 117
  STAT5 protein expression: 118
  c-Abl protein expression: 152
  c-Fos protein expression: 103
  c-Src Y416-p protein expression: 140
  c-Src protein expression: 89
  hnRNP-K protein expression: 75
  p38 protein expression: 18
  p53 protein expression: 108
GammaA3 [9]
  Actin protein expression: 101
  EGFR Y992-p protein expression: 70
  EGFR Y1045-p protein expression: 31
  EGFR protein expression: 25
  EPS15 protein expression: 102
  FAK protein expression: 104
  STAT5 protein expression: 80
  c-Abl protein expression: 65
  c-Fos protein expression: 112
  c-Src Y416-p protein expression: 216
  c-Src protein expression: 107
  hnRNP-K protein expression: 90
  p38 protein expression: 48
  p53 protein expression: 78
HepG2 [10]; [16]
  IC50: 64.6 ± 10.3 µM
HepG2 [10]; [17]
  IC50: 20.9 ± 1.8 µM
A549 [11]; A549, 24 h, 24 h, read-out: Calculated IC50 after single treatment for 24 h
  IC50: 26.1 ± 2.6 µM
A549 [11]; A549, 96 h, 96 h, read-out: Calculated IC50 after daily treatment for 96 h
  IC50: 2.7 µM
CaCo2 [12]; Caco-2, 24 h, read-out: Calculated IC50 after single treatment for 24 h
  IC50: 64.6 ± 10.3 µM
CaCo2 [12]; Caco-2, 96 h, read-out: Calculated IC50 after daily treatment for 96 h
  IC50: 2.1 ± 0.2 µM
GammaD12 [13]
  Cells in G1 phase: 35.5%
  Cells in G2 phase: 12.5%
  Cells in S phase: 51.9%
BetaD5 [14]
  Cells in G1 phase: 73%
  Cells in G2 phase: 22.3%
  Cells in S phase: 4.7%
GammaA3 [15]
  Cells in G1 phase: up to 75%
  Cells in G2 phase: 14.9%
  Cells in S phase: 10%
GammaA3 [15]; listed as Si 135
  Cells in G1 phase: 75.1%
